The target of one data set is T1, MCH receptor (Homo sapiens, UniProt Q99705).
T1 construct: expressed in transfected cells; host or cells: CHO cells (membrane preparation)
Put plainly: MCH receptor binding assay ([125I]-MCH, SPA). As to conditions: membranes from CHO cells expressing the MCH receptor. As to the method:
MCH Receptor Binding Assay:
Membranes from CHO cells expressing the MCH receptor were prepared by lysing cells with 5 mM HEPES for 15 min at 4 C. Cell lysates were centrifuged ([…], 15 min) and the pellet was re-suspended in 5 mM HEPES. For each 96-well plate (Microlite, Dynex Technologies), 1 mg of cell membranes were incubated with 10 mg of wheat germ agglutinin SPA beads (Amersham) for 5 min at 4 C in a volume of 10 ml of binding buffer (25 mM HEPES, 10 mM MGCl2, 10 mM NaCl, 5 mM MnCl2, 0.1% BSA). The membrane/bead mixture was centrifuged (1500×g, 3.5 min), the supernatant was aspirated, and the pellet was resuspended in 10 ml binding buffer. The centrifugation, aspiration and resuspension were then repeated. The membrane/bead mixture (100 μl) was then added to 96-well plates containing 50 μl of 500 pM [^125I]-MCH (NEN) and […] of the appropriate concentration of compound (4× the desired final concentration). Nonspecific binding was determined by including 1 μM MCH in the binding reaction. The binding reaction was incubated at room temperature for 2 h. Plates were then analyzed in a TOPCOUNT microplate scintillation counter (Packard). Data was analyzed and Ki values were determined using GraphPad Prism.

In the next data set the target is T2, hERG channels (Homo sapiens, UniProt Q12809).
T2 construct: expressed in transfected cells
T2 sequence (Q12809 whole entry): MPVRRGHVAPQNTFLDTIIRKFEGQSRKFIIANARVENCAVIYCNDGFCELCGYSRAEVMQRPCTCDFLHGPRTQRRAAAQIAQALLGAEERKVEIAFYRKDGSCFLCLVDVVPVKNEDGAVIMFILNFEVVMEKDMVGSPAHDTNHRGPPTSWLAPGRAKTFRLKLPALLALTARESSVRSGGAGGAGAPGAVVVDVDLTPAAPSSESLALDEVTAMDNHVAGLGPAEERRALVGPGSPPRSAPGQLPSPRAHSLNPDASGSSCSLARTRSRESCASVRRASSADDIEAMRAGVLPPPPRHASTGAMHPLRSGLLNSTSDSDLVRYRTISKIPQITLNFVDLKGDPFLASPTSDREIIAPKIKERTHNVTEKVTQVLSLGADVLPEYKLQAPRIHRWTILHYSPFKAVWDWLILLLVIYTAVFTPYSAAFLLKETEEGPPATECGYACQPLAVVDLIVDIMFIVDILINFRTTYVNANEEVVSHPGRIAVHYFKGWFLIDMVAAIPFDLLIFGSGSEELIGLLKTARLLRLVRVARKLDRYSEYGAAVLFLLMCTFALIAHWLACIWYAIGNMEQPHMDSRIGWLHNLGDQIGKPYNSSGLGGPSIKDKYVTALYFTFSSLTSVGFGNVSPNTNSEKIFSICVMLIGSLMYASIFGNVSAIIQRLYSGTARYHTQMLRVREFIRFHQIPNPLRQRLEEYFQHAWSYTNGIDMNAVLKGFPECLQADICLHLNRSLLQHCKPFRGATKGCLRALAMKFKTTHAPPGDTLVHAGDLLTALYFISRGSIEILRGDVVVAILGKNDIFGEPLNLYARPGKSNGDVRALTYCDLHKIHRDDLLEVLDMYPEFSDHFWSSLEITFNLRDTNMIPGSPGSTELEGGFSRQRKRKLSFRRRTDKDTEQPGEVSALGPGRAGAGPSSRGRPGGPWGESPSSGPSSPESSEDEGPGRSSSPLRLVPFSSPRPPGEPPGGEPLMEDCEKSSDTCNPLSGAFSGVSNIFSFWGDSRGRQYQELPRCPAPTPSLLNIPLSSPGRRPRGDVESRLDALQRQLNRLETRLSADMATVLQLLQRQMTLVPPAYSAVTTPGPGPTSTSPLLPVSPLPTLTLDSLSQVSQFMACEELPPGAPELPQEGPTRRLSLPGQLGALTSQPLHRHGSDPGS
The data set is described as follows: Herg-Rb two phase screen (rubidium efflux). The format is cell-based. As to conditions: CHO cells expressing hERG, relative to complete block with 10 μM dofetilide; for herg-Rb 1.5 μg/mL (%): test article at 1.5 μg/ml; for herg-Rb 5 μg/mL (%): test article at 5 μg/ml. As to the method:
Herg-Rb data (μg/mL) (%) was determined by the following two phase screen. The first phase is a cell-handling phase in which cells are loaded with rubidium, drugs are added and efflux initiated by KCl-depolarization. The second phase is measurement of rubidium content in cell supernatants that are collected at the end of the cell-handling phase. CHO cells expressing hERG in a stable manner are used for these studies. Cells are plated into 96-well dishes one day prior to study. After overnight culture, the normal tissue culture medium is removed and cells are loaded with rubidium for 3 hours in a HEPES-buffered physiological saline solution containing 5 mM rubidium chloride in place of potassium chloride. During the final 30 minutes of rubidium loading cells are pre-equilibrated with test articles at 1.5 μg/ml and 5 μg/ml. Cells are then washed with rubidium-free HEPES buffered physiological saline solution containing 5 mM KCl to remove all extracellular rubidium. The final step of the cell handling phase is to depolarize the cells in HEPES buffered physiological saline containing 50 mM KCl. This opens hERG channels and permits efflux of rubidium. Supernatants are collected after 5 minutes and rubidium content is measured using a flame atomic absorbance spectrometer with a robot for sampling from 96-well plates (ICR-8000, Aurora Biomed Inc., Vancouver, British Columbia). In cases where the channel is blocked the amount of rubidium efflux is reduced. Drug effects are calculated based on the difference between wells with no added compound and wells in which there is complete block of hERG channels with a well-known positive standard (10 μM dofetilide).
Background: hERG is a cardiac potassium channel; its block is linked to QT prolongation.

Like-named read-outs stand apart in the source and are kept apart here.

T1 sequence (Q99705 whole entry): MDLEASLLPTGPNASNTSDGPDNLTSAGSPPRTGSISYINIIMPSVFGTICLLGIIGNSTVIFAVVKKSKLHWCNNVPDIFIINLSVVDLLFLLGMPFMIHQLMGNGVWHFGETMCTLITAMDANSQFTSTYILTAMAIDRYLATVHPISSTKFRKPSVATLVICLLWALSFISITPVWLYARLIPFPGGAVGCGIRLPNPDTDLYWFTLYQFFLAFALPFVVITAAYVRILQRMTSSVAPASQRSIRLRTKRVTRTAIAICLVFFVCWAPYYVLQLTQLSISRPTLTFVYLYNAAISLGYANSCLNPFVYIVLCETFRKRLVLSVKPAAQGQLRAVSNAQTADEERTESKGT

For orientation: Ki means the dissociation constant of the complex between target and ligand, obtained from inhibition or displacement. In the case of `NCc1ccc(C2=CCC(N(CCN3CCCC3)C(=O)Nc3ccc(F)c(Cl)c3)CC2)s1` (centres unmarked) [Example 1], the Ki on MCH receptor (read-out: Class (Ki)) was under 30 nM; at MCH receptor (read-out: Ki) it was 8 nM. For the same compound, on hERG channels, the “herg-Rb 1.5 μg/mL (%)” value stood at 22%. Also, on hERG channels, the “herg-Rb 5 μg/mL (%)” value is listed as 26%.
On to `CN(C)Cc1ccc(C2=CCC(N(CCN3CCCC3)C(=O)Nc3ccc(F)c(Cl)c3)CC2)s1` (centres unmarked) [Example 2], for which, at MCH receptor (read-out: Class (Ki)), the inhibition constant (Ki) was over 100 nM.
With `O=C(Nc1ccc(F)c(Cl)c1)N(CCN1CCCC1)C1CC=C(c2ccc(CN3CCC3)s2)CC1` (centres unmarked) [Example 3], the Ki on MCH receptor (read-out: Class (Ki)) is over 100 nM. Moreover, at hERG channels, the “herg-Rb 1.5 μg/mL (%)” value is −1% and the “herg-Rb 5 μg/mL (%)” value is given as 15%.
Take `O=C(Nc1ccc(F)c(Cl)c1)N(CCN1CCCC1)C1CC=C(c2ccc(CN3CCCC3)s2)CC1` (centres unmarked) [Example 4]: the Ki at MCH receptor (read-out: Class (Ki)) is over 100 nM. Also, at hERG channels, the “herg-Rb 1.5 μg/mL (%)” value was −1% and the “herg-Rb 5 μg/mL (%)” value stood at 20%.
In the case of `O=C(Nc1ccc(F)c(Cl)c1)N(CCN1CCCC1)C1CC=C(c2ccc(CN3CC[C@H](O)C3)s2)CC1` (some centres unmarked) [Example 5], the inhibitory constant (Ki) on MCH receptor (read-out: Class (Ki)) lay within 30 to 100 nM. In addition, at hERG channels, the “herg-Rb 1.5 μg/mL (%)” value worked out at 0% and the “herg-Rb 5 μg/mL (%)” value was determined as 6%.
On to `CNCc1ccc(C2=CCC(N(CCN3CCCC3)C(=O)Nc3ccc(F)c(Cl)c3)CC2)s1` (centres unmarked) [Example 6], for which the Ki at MCH receptor (read-out: Class (Ki)) was under 30 nM.
`NCc1ncc(C2=CCC(N(CCN3CCCC3)C(=O)Nc3ccc(F)c(Cl)c3)CC2)s1` (centres unmarked) [Example 7]: the Ki on MCH receptor (read-out: Class (Ki)) is under 30 nM. Further, at hERG channels, the “herg-Rb 1.5 μg/mL (%)” value was −1% and the “herg-Rb 5 μg/mL (%)” value came to 10%.
`CN(C)Cc1ncc(C2=CCC(N(CCN3CCCC3)C(=O)Nc3ccc(F)c(C(F)(F)F)c3)CC2)s1` (centres unmarked) [Example 8]: the Ki on MCH receptor (read-out: Class (Ki)) is over 100 nM.
For the compound `CN(C)Cc1ncc(C2=CCC(N(CCN3CCCC3)C(=O)Nc3ccc(F)c(Cl)c3)CC2)s1` (centres unmarked) [Example 9], the Ki on MCH receptor (read-out: Class (Ki)) is over 100 nM.
As for `NCc1ncc(C2=CCC(N(CCN3CCCC3)C(=O)Nc3ccc(F)c(C(F)(F)F)c3)CC2)s1` (centres unmarked) [Example 10], the Ki on MCH receptor (read-out: Class (Ki)) was under 30 nM. For the same compound, at hERG channels, the “herg-Rb 1.5 μg/mL (%)” value was 9% and the “herg-Rb 5 μg/mL (%)” value is recorded as 26%.
The like results for `NCc1cnc(C2=CCC(N(CCN3CCCC3)C(=O)Nc3ccc(F)c(Cl)c3)CC2)s1` (centres unmarked) [Example 11] were, in that order, under 30 nM, 9% and 14%.
Turning to `NCc1ncc([C@]23CC[C@@H](N(CCN4CCCC4)C(=O)Nc4ccc(F)c(C(F)(F)F)c4)[C@H]2C3)s1` [Example 12], the Ki on MCH receptor (read-out: Class (Ki)) is over 100 nM. Moreover, on hERG channels, the “herg-Rb 1.5 μg/mL (%)” value turned out to be 13% and the “herg-Rb 5 μg/mL (%)” value was 16%.
Regarding `NCc1ncc([C@]23CC[C@@H](N(CCN4CC[C@H](O)C4)C(=O)Nc4ccc(F)c(C(F)(F)F)c4)[C@H]2C3)s1` [Example 13], at MCH receptor (read-out: Class (Ki)), the inhibition constant Ki lay within 30 to 100 nM. Besides, on hERG channels, the “herg-Rb 1.5 μg/mL (%)” value worked out at 13% and the “herg-Rb 5 μg/mL (%)” value is on record as 8%.
As for `NCc1ncc([C@@]23C[C@H](N(CCCN4CC[C@H](O)C4)C(=O)Nc4ccc(F)c(C(F)(F)F)c4)C[C@@H]2C3)s1` [Example 14], the Ki on MCH receptor (read-out: Class (Ki)) is over 100 nM.
For the compound `NCc1ncc([C@]23CC[C@@H](N(CCCN4CC[C@H](O)C4)C(=O)Nc4ccc(F)c(C(F)(F)F)c4)C2C3)s1` (some centres unmarked) [Example 15], on MCH receptor (read-out: Class (Ki)), the Ki was in the range of 30 to 100 nM. Also, on hERG channels, the “herg-Rb 1.5 μg/mL (%)” value is listed as −4% and the “herg-Rb 5 μg/mL (%)” value is −4%.
Take `C[C@@H]1CN(CCCN(C(=O)Nc2ccc(F)c(C(F)(F)F)c2)[C@@H]2CC[C@]3(c4cnc(CN)s4)CC23)[C@@H](C)CN1` (some centres unmarked) [Example 16]: on MCH receptor (read-out: Class (Ki)), the Ki was under 30 nM. At hERG channels, the “herg-Rb 1.5 μg/mL (%)” value was −11% and the “herg-Rb 5 μg/mL (%)” value was −8%.
With `NCc1ncc([C@]23CC[C@@H](N(CCCN4CC5CC4CN5)C(=O)Nc4ccc(F)c(C(F)(F)F)c4)C2C3)s1` (some centres unmarked) [Example 17], the Ki on MCH receptor (read-out: Class (Ki)) lay in the range of 30 to 100 nM. Further, on hERG channels, the “herg-Rb 1.5 μg/mL (%)” value is 0% and the “herg-Rb 5 μg/mL (%)” value is 14%.
For `NCc1ncc([C@]23CC[C@@H](N(CCCN4CC[C@@H](O)C4)C(=O)Nc4ccc(F)c(C(F)(F)F)c4)C2C3)s1` (some centres unmarked) [Example 18], the inhibition constant Ki on MCH receptor (read-out: Class (Ki)) is under 30 nM. On hERG channels, the “herg-Rb 1.5 μg/mL (%)” value is −5% and the “herg-Rb 5 μg/mL (%)” value is −4%.
Turning to `C[C@@H]1CN(CCCN(C(=O)Nc2cc(Cl)nc(Cl)c2)[C@@H]2CC[C@]3(c4cnc(CN)s4)CC23)[C@@H](C)CN1` (some centres unmarked) [Example 19], the Ki at MCH receptor (read-out: Class (Ki)) was under 30 nM. In addition, on hERG channels, the “herg-Rb 1.5 μg/mL (%)” value is −10% and the “herg-Rb 5 μg/mL (%)” value is 3%.
As to `NCc1ncc([C@@]23CC[C@H](N(CCCN4CC[C@@H](O)C4)C(=O)Nc4ccc(F)c(C(F)(F)F)c4)[C@@H]2C3)s1` [Example 20], the Ki at MCH receptor (read-out: Class (Ki)) is over 100 nM.
On the same count and under the same terms, then `NCc1ncc([C@]23CC[C@@H](N(CCCN4CC[C@@H](O)C4)C(=O)Nc4ccc(F)c(C(F)(F)F)c4)[C@H]2C3)s1` [Example 21], with under 30 nM.

The values above are taken from US7361769B2, “Heterocyclyls as selective melanin concentrating hormone receptor antagonists for the treatment of obesity and related disorders” (Schering Corporation, priority 2004, dated 2008).
